Molecular target: T1, human parathyroid cell Ca2+ receptor (hPCaR) (Homo sapiens, UniProt P41180)
T1 construct: expressed in transfected cells
T1 sequence (P41180 20-1078): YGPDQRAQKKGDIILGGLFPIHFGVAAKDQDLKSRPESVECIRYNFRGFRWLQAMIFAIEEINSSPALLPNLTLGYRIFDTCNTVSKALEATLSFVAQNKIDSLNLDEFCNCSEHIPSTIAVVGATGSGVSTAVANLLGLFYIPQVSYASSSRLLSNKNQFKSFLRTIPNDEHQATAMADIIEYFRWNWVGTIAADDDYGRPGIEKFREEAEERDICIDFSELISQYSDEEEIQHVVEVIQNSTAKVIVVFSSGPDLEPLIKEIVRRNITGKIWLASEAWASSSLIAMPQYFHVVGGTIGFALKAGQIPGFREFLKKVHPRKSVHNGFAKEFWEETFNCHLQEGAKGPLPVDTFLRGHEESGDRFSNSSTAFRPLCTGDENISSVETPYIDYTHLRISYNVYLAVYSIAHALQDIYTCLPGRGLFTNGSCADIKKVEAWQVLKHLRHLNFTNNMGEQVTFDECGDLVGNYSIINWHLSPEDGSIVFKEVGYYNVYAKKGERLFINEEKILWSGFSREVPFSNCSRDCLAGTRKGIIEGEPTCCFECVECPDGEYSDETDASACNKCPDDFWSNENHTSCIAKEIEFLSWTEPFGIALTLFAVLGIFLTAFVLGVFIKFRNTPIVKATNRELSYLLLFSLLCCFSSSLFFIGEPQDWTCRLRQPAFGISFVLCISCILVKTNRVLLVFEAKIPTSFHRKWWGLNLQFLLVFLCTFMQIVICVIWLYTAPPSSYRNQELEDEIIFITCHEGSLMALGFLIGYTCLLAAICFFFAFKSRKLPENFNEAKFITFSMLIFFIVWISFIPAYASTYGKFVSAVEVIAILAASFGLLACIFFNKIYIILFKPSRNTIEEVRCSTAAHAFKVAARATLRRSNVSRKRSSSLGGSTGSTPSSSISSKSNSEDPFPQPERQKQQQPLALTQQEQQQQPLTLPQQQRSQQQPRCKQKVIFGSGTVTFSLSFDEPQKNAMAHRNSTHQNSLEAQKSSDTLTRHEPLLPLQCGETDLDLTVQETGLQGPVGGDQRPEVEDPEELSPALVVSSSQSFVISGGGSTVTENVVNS
Test: [Ca2+]i fluorescence assay in HEK 293 4.0-7 cells expressing hPCaR
Format: cell-based
Settings: buffer with 1 mM CaCl2
In short: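 HEK 293 clone 4.0-7 stably expressing human parathyroid Ca2+ receptor, seeded overnight, then loaded 90 min at room temperature with calcium dye in parathyroid cell buffer (pH 7.45) with 0.5% BSA and 1 mM CaCl2. Fluorescence after compound addition read at ex 485/em 530 nm.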

EC50	SMILES
< 100 nM	O=C(NCCCCN(CCC(c1ccccc1)c1ccccc1)C(=O)Nc1nc2ccccc2s1)C1CCCCN1 (stereo not shown) [Example 128, 3-(benzo[d]thiazol-2-yl)-1-(3,3-diphenylpropyl)-1-(4-(piperidine-2-carboxamido)butyl)urea]
< 100 nM	CSCCCN(CCC(c1ccccc1)c1ccccc1)C(=O)Nc1nc(-c2ccc(NS(C)(=O)=O)cc2)c(Cl)s1 [Example 138, 3-(5-chloro-4-(4-(methylsulfonamido)phenyl)thiazol-2-yl)-1-(3,3-diphenylpropyl)-1-(3-(methylthio)propyl)urea]
< 100 nM	CS(=O)(=O)Nc1ccc(-c2nc(NC(=O)N(CCN)CCC(c3ccccc3)c3ccccc3)sc2Cl)cc1 [Example 135, 1-(2-aminoethyl)-3-(5-chloro-4-(4-(methylsulfonamido)phenyl)thiazol-2-yl)-1-(3,3-diphenylpropyl)urea]
< 100 nM	CS(=O)(=O)Nc1ccc(-c2csc(NC(=O)N(CCC(N)=O)CCC(c3ccccc3)c3ccccc3)n2)cc1 [Example 77, 1-(3-amino-3-oxopropyl)-1-(3,3-diphenylpropyl)-3-(4-(4-(methylsulfonamido)phenyl)thiazol-2-yl)urea]
< 100 nM	O=C(NCCN(CCC(c1ccccc1)c1ccccc1)C(=O)Nc1nc2ccccc2s1)C1CCNCC1 [Example 166, Piperidine-4-carboxylic acid {2-[3-benzothiazol-2-yl-1-(3,3-diphenyl-propyl)-ureido]-ethyl}-amide]
< 100 nM	O=C(Nc1nc2ccccc2s1)N(CCN[C@@H]1CCCNC1)CCC(c1ccccc1)c1ccccc1 [Example 145, (R)-3-(benzo[d]thiazol-2-yl)-1-(3,3-diphenylpropyl)-1-(2-(piperidin-3-ylamino)ethyl)urea]
< 100 nM	CS(=O)(=O)c1ccc(-c2nc(NC(=O)N(CCCC(=O)O)CCC(c3ccccc3)c3ccccc3)sc2Cl)cc1 [Example 72, 4-(3-(5-chloro-4-(4-(methylsulfonyl)phenyl)thiazol-2-yl)-1-(3,3-diphenylpropyl)ureido)butanoic acid]
100 to 1000 nM	CN(C)S(=O)(=O)NCCN(CCC(c1ccccc1)c1ccccc1)C(=O)Nc1nc2ccccc2s1 [Example 174, N,N-dimethylamino-sulfonyl-{2-[3-benzothiazol-2-yl-1-(3,3-diphenyl-propyl)-ureido]-ethyl}-amide]
100 to 1000 nM	CS(=O)(=O)NCCN(CCC(c1ccccc1)c1ccccc1)C(=O)Nc1nc2ccccc2s1 [Example 167, N-{2-[3-Benzothiazol-2-yl-1-(3,3-diphenyl-propyl)-ureido]-ethyl}-methanesulfonamide]
< 100 nM	CS(=O)(=O)Nc1ccc(-c2nc(NC(=O)N(CCN[C@@H]3CCCNC3)CCC(c3ccccc3)c3ccccc3)sc2Cl)cc1 [Example 140, (R)-3-(5-chloro-4-(4-(methylsulfonamido)phenyl)thiazol-2-yl)-1-(3,3-diphenylpropyl)-1-(2-(piperidin-3-ylamino)ethyl)urea]
1000 to 5000 nM	CCOC(=O)C1CC1CNCCN(CCC(c1ccccc1)c1ccccc1)C(=O)Nc1nc2ccccc2s1 (stereo not shown) [Example 152, 2-({2-[3-Benzothiazol-2-yl-1-(3,3-diphenyl-propyl)-ureido]-ethylamino}-methyl)cyclopropanecarboxylic acid ethyl ester]
< 100 nM	CC(=O)N1CCN(C(=O)CCCN(CCC(c2ccccc2)c2ccccc2)C(=O)Nc2nc(-c3ccccc3)cs2)CC1 [Example 84, 1-(4-(4-acetylpiperazin-1-yl)-4-oxobutyl)-1-(3,3-diphenylpropyl)-3-(4-phenylthiazol-2-yl)urea]
1000 to 5000 nM	CCCS(=O)(=O)NCCN(CCC(c1ccccc1)c1ccccc1)C(=O)Nc1nc2ccccc2s1 [Example 168, Propane-1-sulfonic acid {2-[3-benzothiazol-2-yl-1-(3,3-diphenyl-propyl)-ureido]-ethyl}-amide]
100 to 1000 nM	CN(C)C(=O)CCN(CCC(c1ccccc1)c1ccccc1)C(=O)Nc1nc2ccccc2s1 [Example 107, 3-(benzo[d]thiazol-2-yl)-1-(3-(dimethylamino)-3-oxopropyl)-1-(3,3-diphenylpropyl)urea]
< 100 nM	CS(=O)(=O)c1ccc(-c2csc(NC(=O)N(CCCC(=O)O)CCC(c3ccccc3)c3ccccc3)n2)cc1 [Example 79, 4-(1-(3,3-diphenylpropyl)-3-(4-(4-(methylsulfonyl)phenyl)thiazol-2-yl)ureido)butanoic acid]
1000 to 5000 nM	O=C(O)CCN(CCC(c1ccccc1)c1ccccc1)C(=O)Nc1nc(-c2ccccc2)c(Cl)s1 [Example 121, 3-(3-(5-chloro-4-phenylthiazol-2-yl)-1-(3,3-diphenylpropyl)ureido)propanoic acid]
1000 to 5000 nM	C[C@@H]1CN(C(=O)CCN(CCC(c2ccccc2)c2ccccc2)C(=O)Nc2nc3ccccc3s2)CCN1 [Example 125, (R)-3-(benzo[d]thiazol-2-yl)-1-(3,3-diphenylpropyl)-1-(3-(3-methylpiperazin-1-yl)-3-oxopropyl)urea]
100 to 1000 nM	CC(C)(C)OC(=O)N1CCC(NCCN(CCC(c2ccccc2)c2ccccc2)C(=O)Nc2nc3ccccc3s2)CC1 [Example 159, 4-{2-[3-Benzothiazol-2-yl-1-(3,3-diphenyl-propyl)-ureido]-ethylamino}-piperidine-1-carboxylic acid tert-butyl ester]
100 to 1000 nM	COc1ccc(CNCCN(CCC(c2ccccc2)c2ccccc2)C(=O)Nc2nc3ccccc3s2)cn1 [Example 154, 3-Benzothiazol-2-yl-1-(3,3-diphenyl-propyl)-1-{2-[(6-methoxy-pyridin-3-ylmethyl)amino]-ethyl}-urea]
< 100 nM	CS(=O)(=O)Nc1ccc(-c2nc(NC(=O)N(CCC(c3ccccc3)c3ccccc3)CCS(N)(=O)=O)sc2Cl)cc1 [Example 136, 2-[{[(5-chloro-4-{4-[(methylsulfonyl)amino]phenyl}-1,3-thiazol-2-yl)amino]carbonyl}(3,3-diphenylpropyl)amino]ethanesulfonamide]
100 to 1000 nM	CC(=O)Nc1ccc(S(=O)(=O)NCCN(CCC(c2ccccc2)c2ccccc2)C(=O)Nc2nc3ccccc3s2)cc1 [Example 170, N-(4-{2-[3-Benzothiazol-2-yl-1-(3,3-diphenylpropyl)-ureido]-ethylsulfamoyl}-phenyl)acetamide]
100 to 1000 nM	O=C(O)CCCN(CCC(c1ccccc1)c1ccccc1)C(=O)Nc1nc2ccccc2s1 [Example 104, 4-(3-(benzo[d]thiazol-2-yl)-1-(3,3-diphenylpropyl)ureido)butanoic acid]
100 to 1000 nM	NC(=O)CCN(CCC(c1ccccc1)c1ccccc1)C(=O)Nc1nc(-c2ccccc2)c(Cl)s1 [Example 110, 1-(3-amino-3-oxopropyl)-3-(5-chloro-4-phenylthiazol-2-yl)-1-(3,3-diphenylpropyl)urea]
< 100 nM	O=C(Nc1nc2ccccc2s1)N(CCNC1CCNCC1)CCC(c1ccccc1)c1ccccc1 [Example 143, 3-(benzo[d]thiazol-2-yl)-1-(3,3-diphenylpropyl)-1-(2-(piperidin-4-ylamino)ethyl)urea]
100 to 1000 nM	O=C(CCN(CCC(c1ccccc1)c1ccccc1)C(=O)Nc1nc(-c2ccccc2)cs1)N[C@@H]1CCCNC1 [Example 102, (R)-1-(3,3-diphenylpropyl)-1-(3-oxo-3-(piperidin-3-ylamino)propyl)-3-(4-phenylthiazol-2-yl)urea]

— patent publication US20080125424A1, “Derivatives of urea and related diamines, methods for their manufacture, and uses therefor” (priority 2006, published 2008)
